Reference: patent US11058119B2, “Biologicals and their use in plants” (priority 2015, dated 2021)

How the values were obtained:
[1] = system: Metarhizium robertsii (15013-1); assay: Determination of fungicide sensitivity, conidia growth in liquid media; format: cell-based; conditions: 5,000 conidia in 0.5 ml YMA, 26° C., visual observation
Method: (§1) Conidia of Metarhizium robertsii (15013-1) and Metarhizium robertsii (23013-3) were produced by growing the fungus on potato dextrose agar plates for 1-2 weeks at 23° C. under continuous illumination from fluorescent lights. Conidia were harvested from the plate in water containing Tween-20 (0.01%) and counted using a hemacytometer. Fungicide sensitivity was determined by mixing 5,000 conidia in 0.5 ml of YMA (2 g yeast extract, 4 g malt extract per liter) liquid media containing varying concentrations of commercially available fungicides active against filamentous fungi in a 24 well plate. Plates were incubated for […] at 26° C. and then growth was assessed by visual observation with a stereomicroscope.

[2] = system: Metarhizium robertsii (23013-3); assay: as above; format: cell-based; conditions: 5,000 conidia in 0.5 ml YMA, 26° C., visual observation
Method: as §1

Row | SMILES | growth of 15013-1 conidia compared to a control without any fungicide ([1]; Fungicide Concentration 3 uM) | growth of 15013-1 conidia compared to a control without any fungicide ([1]; Fungicide Concentration 10 uM) | growth of 15013-1 conidia compared to a control without any fungicide ([1]; Fungicide Concentration 30 uM) | growth of 23013-3 conidia compared to a control without any fungicide ([2]; Fungicide Concentration 3 uM) | growth of 23013-3 conidia compared to a control without any fungicide ([2]; Fungicide Concentration 10 uM) | growth of 23013-3 conidia compared to a control without any fungicide ([2]; Fungicide Concentration 30 uM)
1 | CO/C=C(/C(=O)OC)c1ccccc1Oc1cc(Oc2ccccc2C#N)ncn1 [Azoxystrobin] | ++ (growth of about 20% or about 80% inhibition compared to a control without any fungicide) | + (growth of about 10% or about 90% inhibition compared to a control without any fungicide) | − | + (growth of about 10% or about 90% inhibition compared to a control without any fungicide) | − | −
2 | N#Cc1c[nH]cc1-c1cccc2c1OC(F)(F)O2 [Fludioxonil] | + (growth of about 10% or about 90% inhibition compared to a control without any fungicide) | + (growth of about 10% or about 90% inhibition compared to a control without any fungicide) | + (growth of about 10% or about 90% inhibition compared to a control without any fungicide) | + (growth of about 10% or about 90% inhibition compared to a control without any fungicide) | + (growth of about 10% or about 90% inhibition compared to a control without any fungicide) | + (growth of about 10% or about 90% inhibition compared to a control without any fungicide)
3 | c1ccc2[nH]c(-c3cscn3)nc2c1 [Thiabendazole] | ++++ (growth of about 50% or more compared to a control without any fungicide) | ++++ (growth of about 50% or more compared to a control without any fungicide) | ++++ (growth of about 50% or more compared to a control without any fungicide) | +++ (growth of about 30% or about 70% inhibition compared to a control without any fungicide) | ++++ (growth of about 50% or more compared to a control without any fungicide) | ++++ (growth of about 50% or more compared to a control without any fungicide)
